Laboratory results taken from US20230124862A1, “BISMUTH THIOL COMPOUNDS AND COMPOSITIONS AND METHODS OF TREATING MICROBIAL CO-INFECTIONS” (Microbion Corporation, priority 2020, published 2023).
Values after ≈ are worked out from the molar mass of the structure shown. Where two headings read alike, the source gives them in different places. Marks after values point to notes of the source that are not given here.

What was measured:
Enterobacteriaceae [1] = test: Broth microdilution MIC (Example 11); format: cell-based, E. coli, K. pneumoniae, Enterobacter cloacae
Escherichia coli [2] = test: Broth microdilution MIC (Example 12); format: cell-based
Klebsiella pneumoniae = test: Broth microdilution MIC (Example 12); format: cell-based
Pseudomonas aeruginosa [3] = test: Broth microdilution MIC (Example 12); format: cell-based
Acinetobacter baumannii = test: Broth microdilution MIC (Example 12); format: cell-based
[4] = tested on: vancomycin-intermediate Staphylococcus aureus (VISA); test: Broth microdilution MIC (Example 12); format: cell-based
Enterobacteriaceae [5] = settings: E. coli (MMX 102), QC; cited from earlier work
[6] = tested on: P. aeruginosa and A. baumannii; settings: P. aeruginosa (MMX 103), QC; cited from earlier work
Escherichia coli [7] = settings: E. coli ATCC 25922; CLSI established QC range; cited from earlier work
Pseudomonas aeruginosa [8] = settings: P. aeruginosa ATCC 27853; CLSI established QC range; cited from earlier work
S. aureus ATCC 29213 [9] = settings: CLSI established QC range; cited from earlier work
S. aureus ATCC 29213 [10] = test: Broth microdilution MIC (Example 12), ATCC QC organism; settings: ATCC QC organism (Table 102)
Candida krusei [11] = test: Antifungal broth microdilution (Example 13); format: cell-based; settings: C. krusei ATCC 6258, comparators, single value
Aspergillus spp. [12] = test: Antifungal broth microdilution (Example 13); format: cell-based, A. niger, A. terreus, A. fumigatus, A. flavus
fungal pathogens = test: Antifungal activity, NIH/NIAID sponsored study; format: cell-based; settings: 100% endpoint
[13] = tested on: C. parapsilosis ATCC 22019; test: Antifungal broth microdilution (Example 13), QC organism; format: cell-based, Candida parapsilosis; settings: comparators, single value
Candida krusei [14] = settings: C. krusei ATCC 6258, CLSI established QC range, cited from earlier work
Aspergillus spp. [15] = settings: cited from earlier work
[16] = tested on: C. parapsilosis ATCC 22019; settings: C. parapsilosis ATCC 22019, CLSI established QC range, cited from earlier work
E. coli ATCC 25922 = test: MIC control strain; settings: QC organism, Example 13
S. aureus ATCC 29213 [17] = test: MIC control strain; settings: QC organism, Example 13

C[C@H]1COc2c(N3CCN(C)CC3)c(F)cc3c(=O)c(C(=O)O)cn1c23 [LVX]
MIC (Enterobacteriaceae [1]; E. cloacae (MMX 5981), NDM-1, LVX-R, MEM-R, CAZ-R, GEN-R): 64 µg/mL (≈ 177 µM)
MIC (Enterobacteriaceae [1]; E. coli (MMX 102), QC): 0.015 µg/mL (≈ 0.0415 µM)
MIC (Enterobacteriaceae [1]; E. coli (MMX 5980), NDM-1, LVX-R, MEM-R, CAZ-R, GEN-R): 16 µg/mL (≈ 44.3 µM)
MIC (Enterobacteriaceae [1]; E. coli (MMX 8423), ESBL, LVX-R, CAZ-R, GEN-R): 16 µg/mL (≈ 44.3 µM)
MIC (Enterobacteriaceae [1]; E. coli (MMX 8424), ESBL, CAZ-R): 0.06 µg/mL (≈ 0.166 µM)
MIC (Enterobacteriaceae [1]; E. coli (MMX 8425), ESBL, LVX-R, CAZ-R, GEN-R): 16 µg/mL (≈ 44.3 µM)
MIC (Enterobacteriaceae [1]; K. pneumoniae (MMX 4622), KPC-2, MEM-R, CAZ-R): 1 µg/mL (≈ 2.77 µM)
MIC (Enterobacteriaceae [1]; K. pneumoniae (MMX 4623), KPC-2, MEM-R, CAZ-R, GEN-R): 1 µg/mL (≈ 2.77 µM)
MIC (Enterobacteriaceae [1]; K. pneumoniae (MMX 4653), KPC-3, LVX-R, MEM-R, CAZ-R): 64 µg/mL (≈ 177 µM)
MIC (Enterobacteriaceae [1]; K. pneumoniae (MMX 4683), KPC-2, LVX-R, MEM-R, CAZ-R): >64 µg/mL
MIC (Enterobacteriaceae [1]; K. pneumoniae (MMX 4684), ESBL, MEM-R): 0.03 µg/mL (≈ 0.083 µM)
MIC (Enterobacteriaceae [1]; K. pneumoniae (MMX 4685), ESBL, LVX-R, MEM-R, CAZ-R): 32 µg/mL (≈ 88.6 µM)
MIC (Enterobacteriaceae [1]; K. pneumoniae (MMX 4694), KPC-3, LVX-R, MEM-R, CAZ-R): 64 µg/mL (≈ 177 µM)
MIC (Enterobacteriaceae [1]; K. pneumoniae (MMX 5979), NDM-1, LVX-R, MEM-R, CAZ-R, GEN-R): >64 µg/mL
MIC (Escherichia coli [2]; E. coli ATCC 25922, ATCC QC organism (Table 102)): ≤0.008 µg/mL
MIC (Escherichia coli [2]; E. coli ATCC 35218, ATCC QC organism (Table 102)): ≤0.008 µg/mL
MIC (Escherichia coli [2]; E. coli ATCC 35218, ESBL): ≤0.008 µg/mL
MIC (Escherichia coli [2]; E. coli ATCC BAA-2471, NDM): >8 µg/mL
MIC (Escherichia coli [2]; E. coli CDC 114, ESBL/KPC): 4 µg/mL (≈ 11.1 µM)
MIC (Escherichia coli [2]; E. coli CDC 118, ESBL/NDM): 8 µg/mL (≈ 22.1 µM)
MIC (Escherichia coli [2]; E. coli CDC 435, NDM): >8 µg/mL
MIC (Escherichia coli [2]; E. coli CDC 451, KPC): >8 µg/mL
MIC (Escherichia coli [2]; E. coli CDC 503, ESBL/NDM): >8 µg/mL
MIC (Escherichia coli [2]; E. coli MMX 5745, KPC): 8 µg/mL (≈ 22.1 µM)
MIC (Escherichia coli [2]; E. coli MMX 5755, ESBL): 8 µg/mL (≈ 22.1 µM)
MIC (Escherichia coli [2]; E. coli MMX 5756, ESBL): 4 µg/mL (≈ 11.1 µM)
MIC (Escherichia coli [2]; E. coli MMX 5758, ESBL): 8 µg/mL (≈ 22.1 µM)
MIC (Klebsiella pneumoniae; K. pneumoniae ATCC BAA-1705, ATCC QC organism (Table 102)): >8 µg/mL
MIC (Klebsiella pneumoniae; K. pneumoniae ATCC BAA-1705, ESBL/KPC): >8 µg/mL
MIC (Klebsiella pneumoniae; K. pneumoniae CDC 112, KPC): 4 µg/mL (≈ 11.1 µM)
MIC (Klebsiella pneumoniae; K. pneumoniae CDC 113, ESBL/KPC): 4 µg/mL (≈ 11.1 µM)
MIC (Klebsiella pneumoniae; K. pneumoniae CDC 115, ESBL/KPC): >8 µg/mL
MIC (Klebsiella pneumoniae; K. pneumoniae CDC 120, ESBL/KPC): >8 µg/mL
MIC (Klebsiella pneumoniae; K. pneumoniae CDC 126, ESBL/KPC): 0.015 µg/mL (≈ 0.0415 µM)
MIC (Klebsiella pneumoniae; K. pneumoniae CDC 129, ESBL/KPC): >8 µg/mL
MIC (Klebsiella pneumoniae; K. pneumoniae CDC 135, ESBL/VIM): >8 µg/mL
MIC (Klebsiella pneumoniae; K. pneumoniae CDC 138, ESBL/NDM): >8 µg/mL
MIC (Klebsiella pneumoniae; K. pneumoniae CDC 158, ESBL/NDM/OXA): 4 µg/mL (≈ 11.1 µM)
MIC (Klebsiella pneumoniae; K. pneumoniae MMX 9029, ESBL): 0.12 µg/mL (≈ 0.332 µM)
MIC (Pseudomonas aeruginosa [3]; P. aeruginosa ATCC 27853, ATCC QC organism (Table 102)): 0.5 µg/mL (≈ 1.38 µM)
MIC (Pseudomonas aeruginosa [3]; P. aeruginosa CDC 230, VIM/OXA): 8 µg/mL (≈ 22.1 µM)
MIC (Pseudomonas aeruginosa [3]; P. aeruginosa CDC 231, KPC/OXA): >8 µg/mL
MIC (Pseudomonas aeruginosa [3]; P. aeruginosa CDC 241, IMP/OXA): 8 µg/mL (≈ 22.1 µM)
MIC (Pseudomonas aeruginosa [3]; P. aeruginosa CDC 246, NDM/OXA): >8 µg/mL
MIC (Pseudomonas aeruginosa [3]; P. aeruginosa CDC 250, NDM/OXA): >8 µg/mL
MIC (Pseudomonas aeruginosa [3]; P. aeruginosa CDC 356, KPC): 0.12 µg/mL (≈ 0.332 µM)
MIC (Pseudomonas aeruginosa [3]; P. aeruginosa CDC 439, IMP): 8 µg/mL (≈ 22.1 µM)
MIC (Pseudomonas aeruginosa [3]; P. aeruginosa CDC 444, VIM): 8 µg/mL (≈ 22.1 µM)
MIC (Pseudomonas aeruginosa [3]; P. aeruginosa CDC 457, VIM): >8 µg/mL
MIC (Pseudomonas aeruginosa [3]; P. aeruginosa CDC 516, KPC/AmpC): 0.25 µg/mL (≈ 0.692 µM)
MIC (Pseudomonas aeruginosa [3]; P. aeruginosa CDC 518, KPC/AmpC): >8 µg/mL
MIC (Acinetobacter baumannii; A. baumannii CDC 273, ESBL/OXA): >8 µg/mL
MIC (Acinetobacter baumannii; A. baumannii CDC 274, ESBL/OXA): 8 µg/mL (≈ 22.1 µM)
MIC (Acinetobacter baumannii; A. baumannii CDC 275, ESBL/OXA): 4 µg/mL (≈ 11.1 µM)
MIC (Acinetobacter baumannii; A. baumannii CDC 277, ESBL/OXA): 8 µg/mL (≈ 22.1 µM)
MIC (Acinetobacter baumannii; A. baumannii CDC 284, ESBL/OXA): 8 µg/mL (≈ 22.1 µM)
MIC (Acinetobacter baumannii; A. baumannii CDC 307, OXA): 8 µg/mL (≈ 22.1 µM)
MIC (Acinetobacter baumannii; A. baumannii CDC 308, ESBL/OXA): 4 µg/mL (≈ 11.1 µM)
MIC (Acinetobacter baumannii; A. baumannii CDC 311, OXA): 2 µg/mL (≈ 5.53 µM)
MIC (Acinetobacter baumannii; A. baumannii CDC 312, OXA): 2 µg/mL (≈ 5.53 µM)
MIC (Acinetobacter baumannii; A. baumannii CDC 313, ESBL/OXA): 2 µg/mL (≈ 5.53 µM)
MIC (Acinetobacter baumannii; A. baumannii NCTC 13304, OXA): 1 µg/mL (≈ 2.77 µM)
MIC ([4]; S. aureus NRS 1 (hVISA)): 4 µg/mL (≈ 11.1 µM)
MIC ([4]; S. aureus NRS 2): 4 µg/mL (≈ 11.1 µM)
MIC ([4]; S. aureus NRS 3): >8 µg/mL
MIC ([4]; S. aureus NRS 4): 4 µg/mL (≈ 11.1 µM)
MIC ([4]; S. aureus NRS 13): 0.12 µg/mL (≈ 0.332 µM)
MIC ([4]; S. aureus NRS 18): 4 µg/mL (≈ 11.1 µM)
MIC ([4]; S. aureus NRS 22): 8 µg/mL (≈ 22.1 µM)
MIC ([4]; S. aureus NRS 24 (hVISA)): >8 µg/mL
MIC ([4]; S. aureus NRS 27): 8 µg/mL (≈ 22.1 µM)
CLSI Quality Control Range (MIC) (Enterobacteriaceae [5]): (0.008-0.06)^a μg/mL
CLSI Quality Control Range (MIC) [6]: (0.5-4)^a
QC range of MIC (Escherichia coli [7]): (0.008-0.06) μg/mL
QC range of MIC (Pseudomonas aeruginosa [8]): (0.5-4) μg/mL
QC range of MIC (S. aureus ATCC 29213 [9]): (0.06-0.5) μg/mL
MIC (S. aureus ATCC 29213 [10]): 0.06 µg/mL (≈ 0.166 µM)

C[C@@H](c1ncncc1F)[C@](O)(Cn1cncn1)c1ccc(F)cc1F [Voriconazole]
MIC 24 hr (Candida krusei [11]; 24 hr): 0.12 µg/mL (≈ 0.344 µM)
MIC 48 hr (Candida krusei [11]; 48 hr): 0.5 µg/mL (≈ 1.43 µM)
MIC 24 hr (Aspergillus spp. [12]; A. flavus ATCC 204304): 0.12 µg/mL (≈ 0.344 µM)
MIC 48 hr (Aspergillus spp. [12]; A. flavus ATCC 204304): 2 µg/mL (≈ 5.73 µM)
MIC 24 hr (Aspergillus spp. [12]; A. fumigatus ATCC MYA-3626): 0.25 µg/mL (≈ 0.716 µM)
MIC 48 hr (Aspergillus spp. [12]; A. fumigatus ATCC MYA-3626): 0.5 µg/mL (≈ 1.43 µM)
MIC (fungal pathogens; Aspergillus fumigatus, read-out: Antifungal activity, MIC 100%, A. fumigatus AF1): 0.5 µg/mL (≈ 1.43 µM)
MIC (fungal pathogens; Aspergillus fumigatus, read-out: Antifungal activity, MIC 100%, A. fumigatus AF2): 4 µg/mL (≈ 11.5 µM)
MIC (fungal pathogens; Aspergillus fumigatus, read-out: Antifungal activity, MIC 100%, A. fumigatus AF3): 8 µg/mL (≈ 22.9 µM)
MIC (fungal pathogens; Blastomyces dermatitidis, read-out: Antifungal activity, MIC 100%, B. dermatitidis BD1): 0.125 µg/mL (≈ 0.358 µM)
MIC (fungal pathogens; Blastomyces dermatitidis, read-out: Antifungal activity, MIC 100%, B. dermatitidis BD2): ≤ 0.03 µg/mL
MIC (fungal pathogens; Blastomyces dermatitidis, read-out: Antifungal activity, MIC 100%, B. dermatitidis BD3): 0.06 µg/mL (≈ 0.172 µM)
MIC (fungal pathogens; Paecilomyces variotii, read-out: Antifungal activity, MIC 100%, P. variotii CLSI QC): 0.125 µg/mL (≈ 0.358 µM)
MIC 24 hr ([13]; 24 hr): 0.12 µg/mL (≈ 0.344 µM)
MIC 48 hr ([13]; 48 hr): 0.12 µg/mL (≈ 0.344 µM)
QC Range 24 hr (Candida krusei [14]; 24 hr): 0.06-0.5
QC Range 48 hr (Candida krusei [14]; 48 hr): 0.12-1
QC Range 48 hr (Aspergillus spp. [15]; A. flavus ATCC 204304, CLSI established QC range): 0.5-4
QC Range 48 hr (Aspergillus spp. [15]; A. fumigatus ATCC MYA-3626, CLSI established QC range): 0.25-1
QC Range 24 hr ([16]; 24 hr): 0.015-0.12
QC Range 48 hr ([16]; 48 hr): 0.03-0.25
MIC 24 hr (E. coli ATCC 25922): >64
MIC 24 hr (S. aureus ATCC 29213 [17]): >64
